Results: article PMC9890698 (BMC Biology, 2023)
Several values for one entry are separate records, joined by “and”; a condition that tells them apart may be missing. Equal values may be shown once.

Columns and labels:
Human P2Y12-R [1] = biological target: T1, Human P2Y12-R (Homo sapiens, UniProt Q9H244); assay: IP1 accumulation assay (HTRF) in HEK293T cells expressing P2Y12-R; type: cell-based; details: MRS2179 10 μM, 2 h
T1 construct: expressed in transfected cells; host or cells: HEK293T/17

HEK293T cells (pcDNA3.1) = assay: IP1 accumulation assay (HTRF) in control HEK293T cells (pcDNA3.1); type: cell-based, Human; details: pcDNA3.1, MRS2179 10 μM, 2 h
Excerpt: Since Gαq protein activation is known to induce PLC activation leading to IP3 and subsequent cytosolic calcium release, we analyzed the constitutive Gαq-dependent P2Y1-R signaling by quantifying intracellular inositol monophosphate (IP1) using a monoclonal antibody-based competitive ELISA. IP1 is a downstream metabolite of IP3 that accumulates in cells following Gαq protein-coupled receptor activation, making it an ideal readout for Gαq protein-dependent signaling pathways.
Quantification of intracellular IP1 was performed using the HTRF (Homogeneous Time Resolved Fluorescence) IP1 competitive immunoassay (IP-One Tb kit. Cisbio. France) according to the manufacturer’s instructions. Briefly, 20,000 HEK293T/17 cells or 3.10^6 platelets were distributed in a 384-well white microplate (Greiner) and incubated with the indicated molecules for 30 min or 2 h at 37 °C in the presence of 50 mM of LiCl to prevent IP1 degradation. After addition of d2-labeled IP1 (acceptor) and anti-IP1-Cryptate (donor) for 1 h, the specific FRET signals were calculated by the fluorescence ratio of the acceptor and donor emission signal (665/620 nm) collected using a modified Infinite F500 (Tecan Group Ltd). Conversion of the HTRF ratio of each sample into IP1 concentrations was performed on the basis of a standard curve to determine the linear dynamic range of the assay.

[2] = tested on: Gαq protein in HEK293T cells (pcDNA3.1); assay: Gαq protein activation BRET2 assay in control HEK293T cells without receptor (pcDNA3.1 / 0 μg); type: cell-based, Human; details: pcDNA3.1, ADP 10 μM, 1 min, individual experiments
Excerpt: As previously described, using a BRET^2 (bioluminescence resonance energy transfer)-based assay, we directly monitored the basal Gαq protein activation by measuring the interaction between Gαq and Gγ2 subunits of the Gαqβ1γ2 heterotrimer complex. Indeed, this assay is based on the non-radiative transfer between the Renilla reniformis luciferase (RLuc8) energy donor fused to the Gαq protein subunit and the fluorescent GFP2 energy acceptor fused to Gγ2 protein subunit (Fig. 1a). […] By contrast, ligand-independent constitutive receptor activation or agonist-induced receptor activation will promote Gαq/Gγ2 subunit dissociation, thereby leading to a decrease of the basal BRET signal (Fig. 1a). […] To preclude any P2Y1-R activation by a passive release of ADP by HEK293T cells, we performed similar experiments in the presence of high concentration of apyrase (0.2U/mL) to degrade any trace of ADP in the medium (Additional File 2: Fig. S2a). Under these conditions, P2Y1-R expression still induces a marked and significant decrease of the basal BRET signal compared to control cells (pcDNA3.1), thereby supporting a P2Y1-R-dependent constitutive activation of Gαq protein. […] Of note, because P2Y1-R and AT1-R were respectively Myc- and HA-tagged and were thus detected using different primary antibodies, their expression at the cell surface cannot be compared between each other’s.
G protein activation and β-arrestin 2 recruitment were performed as previously described. […] BRET signal between RLuc8 and GFP2 was measured after addition of the luciferase substrate coelenterazine 400a (5 μM). […] BRET signal was recorded after incubation with coelenterazine h (5 μM) for 8 min. For kinetics studies, BRET signal between RLuc and Venus was recorded at 20-s intervals at basal state for the 2 first minutes and then for 5 min after ligand injection. For saturation curves (BRET^1), the expression level of Venus- or RLuc-tagged protein was determined by direct measurement of total fluorescence and luminescence respectively. Total fluorescence was first measured with an excitation filter at 485 nm and an emission filter at 520 nm. Then, the same sample was incubated for 8 minutes with 5 μM coelenterazine h and the total luminescence was measured. BRET^2 and BRET^1 readings were collected using a modified Infinite F500 (Tecan Group Ltd). The BRET^2 signal was calculated by the ratio of emission of GFP2 (510–540 nm) to RLuc8 (370–450 nm) and the BRET^1 signal by the ratio of emission of Venus (520–570 nm) to RLuc (370–480 nm). Sometimes, results are expressed as the Net BRET computed by deducting the BRET background signal (obtained in the presence of the energy donor alone) from the BRET signal (acquired from cells expressing both the energy donor and acceptor).

Human P2Y12-R [3] = biological target: T1, Human P2Y12-R; assay: β-arrestin 2 recruitment BRET1 assay (β-arrestin 2-RLuc / P2Y12-R-Venus) in HEK293T cells; type: cell-based; details: 10 μM, 5 min, result in words
Excerpt: We assessed β-arrestin 2 recruitment to the receptor using BRET^1 assay. The assay measures the interaction between β-arrestin 2 fused to the Renilla reniformis luciferase (RLuc) energy donor and the receptor fused to fluorescent Venus energy acceptor (Fig. 3a). The recruitment of cytosolic β-arrestin 2 to the receptor at the plasma membrane in the presence of an agonist will promote a significant increase of the BRET signal compared to the basal state, reflecting the close proximity between the β-arrestin 2 energy donor and the receptor energy acceptor [22]. […]
G protein activation and β-arrestin 2 recruitment were performed as previously described. […] BRET signal between RLuc8 and GFP2 was measured after addition of the luciferase substrate coelenterazine 400a (5 μM). […] BRET signal was recorded after incubation with coelenterazine h (5 μM) for 8 min. For kinetics studies, BRET signal between RLuc and Venus was recorded at 20-s intervals at basal state for the 2 first minutes and then for 5 min after ligand injection. For saturation curves (BRET^1), the expression level of Venus- or RLuc-tagged protein was determined by direct measurement of total fluorescence and luminescence respectively. Total fluorescence was first measured with an excitation filter at 485 nm and an emission filter at 520 nm. […] BRET^2 and BRET^1 readings were collected using a modified Infinite F500 (Tecan Group Ltd). […]

T1 sequence (Q9H244 whole entry): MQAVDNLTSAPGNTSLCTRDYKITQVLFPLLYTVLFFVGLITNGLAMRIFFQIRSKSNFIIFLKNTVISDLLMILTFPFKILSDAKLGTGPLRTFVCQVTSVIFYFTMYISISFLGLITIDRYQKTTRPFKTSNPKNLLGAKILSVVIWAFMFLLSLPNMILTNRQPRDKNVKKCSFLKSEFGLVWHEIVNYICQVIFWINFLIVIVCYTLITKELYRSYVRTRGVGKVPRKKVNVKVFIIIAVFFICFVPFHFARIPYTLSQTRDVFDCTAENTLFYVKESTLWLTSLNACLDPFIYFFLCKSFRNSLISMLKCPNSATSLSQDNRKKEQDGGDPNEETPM

SMILES	IP1 concentration (Human P2Y12-R [1])	IP1 concentration (HEK293T cells (pcDNA3.1))	ADP-modulated BRET [2]	Effect on β-arrestin 2 recruitment (Human P2Y12-R [3])
CNc1ncnc2c1ncn2[C@H]1C[C@H](OP(=O)(O)O)[C@@H](COP(=O)(O)O)O1 [MRS2179]	90.2229 nM and 91.7585 nM and 129.706 nM and 87.0301 nM and 114.326 nM	88.9223 nM and 110.299 nM and 105.967 nM and 93.0408 nM and 138.708 nM	–	–
Nc1ncnc2c1ncn2[C@@H]1O[C@H](COP(=O)(O)OP(=O)(O)O)[C@@H](O)[C@H]1O [ADP, adenosine diphosphate]	–	–	-0.02779 and 0.00353 and 0.02201 and 0.01275 and 0.006152 and -0.007154	did not trigger β-arrestin 2 recruitment
